Ends that are not written are not given here.
What was measured:
N. n. kaouthia venom = conditions: in vivo
[1] = test system: venoms and their lethal toxins; set-up: species or system mice; conditions: mouse
Sea snake venom = conditions: in vivo
V. russellii venom = conditions: in vivo
O. s. scutellatus venom = conditions: in vivo
C. atrox venom = conditions: in vivo

LKAMDPTPPLWIKTE [LTNF-15]
Death/Survival Group II (LTNF Immediately) (N. n. kaouthia venom): 0/3 | Death/Survival Group III (LTNF 1/2 hr before) (N. n. kaouthia venom): 0/3 | neutralization of venoms and their lethal toxins in vivo [1]: neutralized in vivo | Death/Survival Group II (LTNF Immediately) (Sea snake venom): 0/3 | Death/Survival Group III (LTNF 1/2 hr before) (Sea snake venom): 0/3 | Death/Survival Group II (LTNF Immediately) (V. russellii venom): 0/3 | Death/Survival Group III (LTNF 1/2 hr before) (V. russellii venom): 0/3 | Death/Survival Group II (LTNF Immediately) (O. s. scutellatus venom): 0/3 | Death/Survival Group III (LTNF 1/2 hr before) (O. s. scutellatus venom): 0/3 | Death/Survival Group II (LTNF Immediately) (C. atrox venom): 0/3 | Death/Survival Group III (LTNF 1/2 hr before) (C. atrox venom): 0/3

— US5744449A (priority 1996, dated 1998)
